From patent US7384734B2, “Compositions and methods for determining the susceptibility of a pathogenic virus to protease inhibitors” (Monogram Biosciences, Inc., priority 2002, dated 2008)

Tested on: HIV-1 from patient plasma samples
Experiment: PHENOSENSE HIV phenotypic drug susceptibility assay (fold change in IC50 versus NL4-3 reference strain)
Format: cell-based
Text: A “fold change” is a numeric comparison of the drug susceptibility of a patient virus and a drug-sensitive reference virus. It is the ratio of the Patient IC50 to the drug-sensitive reference IC50, i.e., Patient IC50/Reference IC50=Fold Change (“FC”). […] A fold change less than 1 indicates the patient virus is more sensitive than the drug-sensitive reference virus. […] A fold change less than the clinical cutoff value means the patient virus is sensitive to that drug.
In one embodiment, the phenotypic analysis is performed using PHENOSENSE™ (ViroLogic Inc., South San Francisco, Calif.). See Petropoulos et al., 2000, Antimicrob. Agents Chemother. 44:920-928; U.S. Pat. Nos. 5,837,464 and 6,242,187. PHENOSENSE™ is a phenotypic assay that achieves the benefits of phenotypic testing and overcomes the drawbacks of previous assays.
A resistance test vector (“RTV”) can then be constructed by incorporating the amplified viral gene sequences into a replication defective viral vector by using any method known in the art of incorporating gene sequences into a vector. In one embodiment, restrictions enzymes and conventional cloning methods are used. See Maniatis et al., 1989, Molecular Cloning: A Laboratory Manual, Cold Spring Harbor Laboratory, N.Y. and Ausubel et al., 1989, Current Protocols in Molecular Biology, Greene Publishing Associates and Wiley Interscience, N.Y. In some embodiments, ApaI and PinAI restriction enzymes are used. Preferably, the replication defective viral vector is the indicator gene viral vector (“IGVV”). In some embodiments, the viral vector contains a means for detecting replication of the RTV. Preferably, the viral vector contains a luciferase expression cassette.
The assay can be performed by first co-transfecting host cells with RTV DNA and a plasmid that expresses the envelope proteins of another retrovirus, for example, amphotropic murine leukemia virus (MLV). Following transfection, virus particles can be harvested and used to infect fresh target cells. The completion of a single round of viral replication can be detected by the means for detecting replication contained in the vector. In one embodiment, the completion of a single round of viral replication results in the production of luciferase. Serial concentrations of anti-viral agents can be added at either the transfection step or the infection step.
Susceptibility to the anti-viral agent can be measured by comparing the replication of the vector in the presence and absence of the anti-viral agent. For example, susceptibility to the anti-viral agent can be measured by comparing the luciferase activity in the presence and absence of the anti-viral agent. Susceptible viruses would produce low levels of luciferase activity in the presence of anti-viral agents, whereas viruses with reduced susceptibility would produce higher levels of luciferase activity.
The phenotypic assay was conducted using the PHENOSENSE™ (Virologic, South San Francisco, Calif.) HIV assay (Petropoulos et al., 2000, Antimicrob. Agents Chemother. 44:920-928; U.S. Pat. Nos. 5,837,464 and 6,242,187). Plasma samples were collected from HIV-1-infected patients. Repeat samples from the same patient were removed to prevent possible bias resulting from unique combinations of mutations.
The genotype data was obtained by sequencing the protease of the HIV-1 present in each patient's sample and determining the sequence changes with respect to the sequence of the NL4-3 (GenBank Accession No. AF324493) HIV. The amino sequence for the NL4-3 protease is provided in SEQ. ID. No. 1 (FIG. 12A) and the nucleic acid sequence for the NL4-3 protease gene is provided in SEQ. ID. No. 2 (FIG. 12B).

[1] = genotype group: 32, 46, 47, 54, n=4
[2] = genotype group: 32, 47, 54, 84, n=5
[3] = genotype group: 32, 47, 54, n=17
[4] = genotype group: 46 (M46I or L), 54, n=16
[5] = genotype group: 46, 54, 84, n=29
[6] = genotype group: 47, 54, 84, n=3
[7] = genotype group: 54 (I54L or M only), n=9
[8] = genotype group: not containing any tested mutation, n=1096
[9] = genotype group: protease mutation 32, n=26
[10] = genotype group: wild-type (all primary positions), n=623

Compound | median FC in each group (each group carrying APV resistance mutations (Table 9)) [fold] | Median FC (genotype group: 32, 46, 47, 54, 84, n=6) | Median FC [1] | Median FC [2] | Median FC [3] | Median FC (genotype group: 32, 47, n=23) | Median FC (genotype group: 32, 84, n=3) | Median FC [4] | Median FC [5] | Median FC [6] | Median FC (genotype group: 47, 54, n=3) | Median FC (genotype group: 47, 84, n=4) | Median FC (genotype group: 47, n=8) | Median FC (genotype group: 50, n=42) | Median FC [7] | Median FC (genotype group: 54, 84, n=22) | Median FC (genotype group: 84, n=247) | Median FC [8] | Median FC [9] | Median FC [10]
CC(C)CN(C[C@@H](O)[C@H](Cc1ccccc1)NC(=O)O[C@H]1CCOC1)S(=O)(=O)c1ccc(N)cc1 [APV, amprenavir] | ≥ 9.5 | 130 | 130 | 130 | 40 | 12 | 51 | 84 | 47 | 24 | 42 | 12 | 26 | 20 | 22 | 67 | 11 | 1.6 | 9.5 | 0.6
Cc1cccc(C)c1OCC(=O)N[C@@H](Cc1ccccc1)[C@@H](O)C[C@H](Cc1ccccc1)NC(=O)[C@H](C(C)C)N1CCCNC1=O [LPV, lopinavir] |  |  | 208 | 227 | 146 | 7.5 | 124 | 138 | 30 | 20 | 88 | 28 |  | 54 | 160 | 93 | 7.1 | 2.1 | 12 | 0.6
